{
  "source": "ChEMBL document CHEMBL1150102",
  "about": "“Chemical constituents of halophilic facultatively anaerobic bacteria, 1” (J Nat Prod, 1995)",
  "note": "Calls of active or inactive are those of the source. No cut-off for these calls is given here.",
  "data": [
    {"test_system": "P388", "experiment": "Cytotoxicity against mouse P388 cells", "type": "functional, cell-based", "units": {"IC50": "µg/mL"}, "values": [
      {"smiles": "CC(C)C(=O)NCCc1ccc(O)c([N+](=O)[O-])c1", "IC50": 3}
    ]},
    {"test_system": "not listed separately", "experiment": "Inhibition of tyrosin kinase pp60src", "values": [
      {"smiles": "CC(C)CC(=O)NCCc1ccc(OC(=O)CC(C)C)c([N+](=O)[O-])c1", "Activity": "inactive"},
      {"smiles": "COC(=O)Cc1ccc(OC)c([N+](=O)[O-])c1", "Activity": "inactive"},
      {"smiles": "O=C(O)c1c[nH]c2ccccc12", "Activity": "inactive"},
      {"smiles": "O=Cc1c[nH]c2ccccc12", "Activity": "inactive"},
      {"smiles": "CC(C)C(=O)NCCc1ccc(O)c([N+](=O)[O-])c1", "Activity": "inactive"},
      {"smiles": "O=C(O)Cc1ccc(O)c([N+](=O)[O-])c1", "Activity": "inactive"},
      {"smiles": "CC(C)C(=O)NCCc1ccc(OC(=O)C(C)C)c([N+](=O)[O-])c1", "Activity": "inactive"},
      {"smiles": "N#Cc1c[nH]c2ccccc12", "Activity": "inactive"},
      {"smiles": "CC(C)CC(=O)NCCc1ccc(O)c([N+](=O)[O-])c1", "Activity": "inactive"},
      {"smiles": "O=C(O)Cc1ccccc1", "Activity": "inactive"}
    ]}
  ]
}
